Entries after “also recorded” stand apart in the source; their conditions may differ. Read-outs that look alike come from different tables or passages of the source. Values belong to the compound of their own block, whether it stands above or below them.
Assays:
MAO-A [1] = biological target: T1, MAO-A (Homo sapiens, UniProt P21397); conditions: competitive; cited from earlier work
T1 construct: purchased BD Biosciences (San Jose, CA) or Corning Discovery Labware (Woburn, MA)
T1 sequence (P21397 1-527): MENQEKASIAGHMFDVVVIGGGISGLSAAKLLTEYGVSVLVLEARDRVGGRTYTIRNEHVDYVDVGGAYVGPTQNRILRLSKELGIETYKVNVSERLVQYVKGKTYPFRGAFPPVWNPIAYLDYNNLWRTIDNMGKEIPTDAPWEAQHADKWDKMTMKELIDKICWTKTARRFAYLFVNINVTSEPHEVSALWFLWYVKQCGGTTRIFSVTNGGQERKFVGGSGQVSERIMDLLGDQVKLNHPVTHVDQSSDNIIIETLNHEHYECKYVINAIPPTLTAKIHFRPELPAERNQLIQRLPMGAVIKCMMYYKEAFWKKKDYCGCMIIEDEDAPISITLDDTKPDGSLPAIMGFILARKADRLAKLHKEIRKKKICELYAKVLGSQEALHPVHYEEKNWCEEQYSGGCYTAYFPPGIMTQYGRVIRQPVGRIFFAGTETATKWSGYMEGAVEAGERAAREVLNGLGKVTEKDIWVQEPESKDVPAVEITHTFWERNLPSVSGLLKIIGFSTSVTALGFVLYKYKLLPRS

MAO-B [2] = biological target: T2, MAO-B (Homo sapiens, UniProt P27338); conditions: competitive; cited from earlier work
T2 construct: purchased BD Biosciences (San Jose, CA) or Corning Discovery Labware (Woburn, MA)
T2 sequence (P27338 1-520): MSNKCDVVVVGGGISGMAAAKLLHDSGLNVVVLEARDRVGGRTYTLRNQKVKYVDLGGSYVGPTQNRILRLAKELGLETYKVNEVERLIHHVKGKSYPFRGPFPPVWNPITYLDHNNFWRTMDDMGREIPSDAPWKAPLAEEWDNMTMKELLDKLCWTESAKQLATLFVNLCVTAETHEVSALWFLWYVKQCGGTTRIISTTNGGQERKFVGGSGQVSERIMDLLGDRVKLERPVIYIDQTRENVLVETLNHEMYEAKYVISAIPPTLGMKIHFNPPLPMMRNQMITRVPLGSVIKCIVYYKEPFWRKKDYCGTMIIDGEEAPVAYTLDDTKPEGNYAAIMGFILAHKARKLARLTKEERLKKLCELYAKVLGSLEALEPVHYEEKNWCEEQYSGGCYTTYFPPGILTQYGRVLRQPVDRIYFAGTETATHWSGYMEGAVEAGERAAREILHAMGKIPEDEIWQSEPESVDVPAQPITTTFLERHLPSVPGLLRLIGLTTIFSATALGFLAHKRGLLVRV

MAO-A [3] = biological target: T1, MAO-A; assay: MAO-A inhibition, kynuramine to 4-hydroxyquinoline, HPLC-fluorescence; assay type: biochemical
MAO-B [4] = biological target: T2, MAO-B; assay: MAO-B inhibition, kynuramine to 4-hydroxyquinoline, HPLC-fluorescence; assay type: biochemical
MAO-B [5] = biological target: T2, MAO-B; assay: Inhibition mechanism studies (competition, time dependence) with MAO-B; assay type: biochemical
[6] = rats, 56 or 168 mg/kg/day by gavage for 14 continuous days; cited from earlier work
[7] = human, 125mg twice daily orally for 6-8 weeks; cited from earlier work
MAO-A in rat brain = conditions: cited from earlier work
MAO-A [8] = conditions: cited from earlier work
MAO-B [9] = conditions: up to 10μM; cited from earlier work
[10] = cited from earlier work
[11] = highest expected luminal concentration: curcumin 140, guaiacol 435, isoeugenol 110, pterostilbene 270, resveratrol 94, zingerone 51 µM, p < 0.05 vs control
[12] = kynuramine 10 µM, MAO-A 0.01 mg/mL, 15 min

SMILES: C=CCc1ccc(O)c(OC)c1 [eugenol]
Ki (MAO-A [1]): 26 µM
Ki (MAO-B [2]): 211 µM

inhibition of MAO-A activity in screening (MAO-A [3]; [11]): significantly inhibited
IC50 (MAO-A [3]; [12]): 13.4 ± 1.5 µM
MAO-A Hill coefficient (MAO-A [3]; [12]): 1.7 ± 0.3
Selectivity Index (MAO-A [3]; ratio of MAO-B IC50/MAO-A IC50): 0.0103
inhibition of MAO-B activity in screening (MAO-B [4]; [11]): significantly inhibited
IC50 (MAO-B [4]; kynuramine 10 µM, MAO-B 0.01 mg/mL, 15 min): 0.138 ± 0.013 µM
Vmax of kynuramine with MAO-B in presence of inhibitor (MAO-B [5]; pterostilbene 0.45 μM, kynuramine 2-450 μM): 3.28 ± 0.19 nmol/min/mg protein
SMILES: COc1cc(/C=C/c2ccc(O)cc2)cc(OC)c1 [pterostilbene]
mechanism of MAO-B inhibition (MAO-B [5]): competitive time-independent; also recorded: competitive, time-independent
time profile of MAO-B activity on preincubation (MAO-B [5]; 0.7 μM, preincubation 0-60 min): not significantly different from the control
oral bioavailability [6]: 80%
plasma low-density lipoproteins [7]: slightly raised
systolic and diastolic blood pressure [7]: reduces

SMILES: Oc1ccc(/C=C/c2cc(O)cc(O)c2)cc1 [resveratrol]
Ki (MAO-B [4]; from IC50 assuming competitive inhibition): 10.2 µM
IC50 (MAO-A in rat brain): 2 µM
Ki (MAO-A in rat brain): 2.5 µM
MAO-A inhibition (MAO-A [8]): inhibitor of MAO-A
MAO-B inhibition (MAO-B [9]): did not significantly inhibit
plasma protein binding [10]: 91%

From paper PMC6364133, “Selectivity of Dietary Phenolics for Inhibition of Human Monoamine Oxidases A and B” (BioMed Research International, 2019)
